Data as given in US20240238423A9, “TETRAHYDROISOQUINOLINE HETEROBIFUNCTIONAL BCL-XL DEGRADERS” (Treeline Biosciences, Inc., priority 2022, published 2024).
Like-named read-outs stand apart in the source and are kept apart here.

Target: T1, Human BCL-XL protein (N-terminal HiBiT tagged BCL-XL in HT1080 cells) (Homo sapiens, UniProt Q07817)
T1 construct: expressed in transfected cells; host or cells: HT-1080 (ATCC CCL-121), stably transduced with lentivirus pLV-UBC-N-HiBiT-BCL-XL-PGK-puro and selected with puromycin
Assay: HiBiT based degradation assay
Type: cell-based
Settings: HT1080 cells expressing HiBiT-BCL-XL; for Ymin (6 h) / Ymin (24 h): BCL-XL degradation normalized with DMSO control; for DC50: BCL-XL degradation
Summary of the method: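 This HiBiT degradation assay measured loss of BCL-XL in HT1080 cells that stably express an N-terminal HiBiT-BCL-XL fusion delivered by lentivirus. Cells were added to compound-spotted 384-well plates, and luminescence was read on a PHERAstar FSX reader. Signal was expressed relative to DMSO controls, curves were fitted by four-parameter logistic regression, and for hook-shaped curves the Ymin point served as the bottom plateau when calculating EC50.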

T1 sequence (Q07817 whole entry): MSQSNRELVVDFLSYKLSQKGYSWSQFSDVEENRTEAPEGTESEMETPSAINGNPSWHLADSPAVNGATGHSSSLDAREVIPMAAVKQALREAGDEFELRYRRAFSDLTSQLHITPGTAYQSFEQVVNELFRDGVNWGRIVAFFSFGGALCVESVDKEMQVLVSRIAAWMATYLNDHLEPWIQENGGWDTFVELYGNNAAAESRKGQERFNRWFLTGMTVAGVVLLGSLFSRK

Cc1c(OCC2CC3(CCN(CC(=O)Nc4ccc5c(C6CCC(=O)NC6=O)nn(C)c5c4)CC3)C2)cccc1-c1ccc(N2CCc3cccc(C(=O)Nc4nc5ccccc5s4)c3C2)nc1C(=O)O (stereo not shown) [Compound 156, 6-(8-(benzo[d]thiazol-2-ylcarbamoyl)-3,4-dihydroisoquinolin-2(1H)-yl)-3-(3-((7-(2-((3-(2,6-dioxopiperidin-3-yl)-1-methyl-1H-indazol-6-yl)amino)-2-oxoethyl)-7-azaspiro[3.5]nonan-2-yl)methoxy)-2-methylphenyl)picolinic acid]
Ymin (6 h): A (Ymin < 50%) | Ymin (24 h): A (Ymin < 50%) | DC50 (6 h, read-out: EC50 (6 h)): < 100 nM | DC50 (24 h, read-out: EC50 (24 h)): < 100 nM

Cc1c(O[C@H]2CC[C@H](CCCN3CCN(c4ccc5c(C6CCC(=O)NC6=O)nn(C)c5c4)[C@H](C(F)(F)F)C3)CC2)cccc1-c1ccc(N2CCc3cccc(C(=O)Nc4nc5ccccc5s4)c3C2)nc1C(=O)O (stereo partly drawn) [Compound 301b, 6-(8-(benzo[d]thiazol-2-ylcarbamoyl)-3,4-dihydroisoquinolin-2(1H)-yl)-3-(3-(((1r,4r)-4-(3-((3S)-4-(3-(2,6-dioxopiperidin-3-yl)-1-methyl-1H-indazol-6-yl)-3-(trifluoromethyl)piperazin-1-yl)propyl)cyclohexyl)oxy)-2-methylphenyl)picolinic acid]
Ymin (24 h): B (50% ≤ Ymin < 70%) | DC50 (24 h, read-out: EC50 (24 h)): < 100 nM

Cc1c(Oc2ccc(CCC(=O)Nc3ccc(C4CCC(=O)NC4=O)cc3)cc2)cccc1-c1ccc(N2CCc3cccc(C(=O)Nc4nc5ccccc5s4)c3C2)nc1C(=O)O (stereo not shown) [Compound 102, 6-[8-(1,3-benzothiazol-2-ylcarbamoyl)-3,4-dihydro-1H-isoquinolin-2-yl]-3-[3-[4-[3-[4-(2,6-dioxo-3-piperidyl)anilino]-3-oxo-propyl]phenoxy]-2-methyl-phenyl]pyridine-2-carboxylic acid]
Ymin (6 h): B (50% ≤ Ymin < 70%) | DC50 (6 h, read-out: EC50 (6 h)): < 100 nM

Cc1c(O[C@H]2CC[C@H](CCCCN3CCN(c4ccc5c(C6CCC(=O)NC6=O)nn(C)c5c4)C[C@H]3C)CC2)cccc1-c1ccc(N2CCc3cccc(C(=O)Nc4nc5ccccc5s4)c3C2)nc1C(=O)O (stereo partly drawn) [Compound 297a, 6-(8-(benzo[d]thiazol-2-ylcarbamoyl)-3,4-dihydroisoquinolin-2(1H)-yl)-3-(3-(((1s,4r)-4-(4-((2R)-4-(3-(2,6-dioxopiperidin-3-yl)-1-methyl-1H-indazol-6-yl)-2-methylpiperazin-1-yl)butyl)cyclohexyl)oxy)-2-methylphenyl)picolinic acid]
Ymin (24 h): A (Ymin < 50%) | DC50 (24 h, read-out: EC50 (24 h)): < 100 nM

Cc1c(OCCO[C@@H]2C[C@H]3CC[C@@H](C2)N3CC(=O)Nc2ccc3c(C4CCC(=O)NC4=O)nn(C)c3c2)cccc1-c1ccc(N2CCc3cccc(C(=O)Nc4nc5ccccc5s4)c3C2)nc1C(=O)O (stereo partly drawn) [Compound 174b, 6-(8-(benzo[d]thiazol-2-ylcarbamoyl)-3,4-dihydroisoquinolin-2(1H)-yl)-3-(3-(2-(((1R,3s,5S)-8-(2-((3-(2,6-dioxopiperidin-3-yl)-1-methyl-1H-indazol-6-yl)amino)-2-oxoethyl)-8-azabicyclo[3.2.1]octan-3-yl)oxy)ethoxy)-2-methylphenyl)picolinic acid]
Ymin (6 h): C (Ymin ≥ 70%) | Ymin (24 h): B (50% ≤ Ymin < 70%) | DC50 (6 h, read-out: EC50 (6 h)): 100 to 1000 nM | DC50 (24 h, read-out: EC50 (24 h)): < 100 nM

Cc1c(CCCOC2CCN(CC(=O)Nc3ccc4c(C5CCC(=O)NC5=O)nn(C)c4c3)CC2)cccc1-c1ccc(N2CCc3cccc(C(=O)Nc4nc5ccccc5s4)c3C2)nc1C(=O)O (stereo not shown) [Compound 290, 6-[8-(1,3-benzothiazol-2-ylcarbamoyl)-3,4-dihydro-1H-isoquinolin-2-yl]-3-[3-[3-[[1-[2-[[3-(2,6-dioxo-3-piperidyl)-1-methyl-indazol-6-yl]amino]-2-oxo-ethyl]-4-piperidyl]oxy]propyl]-2-methyl-phenyl]pyridine-2-carboxylic acid]
Ymin (24 h): A (Ymin < 50%) | DC50 (24 h, read-out: EC50 (24 h)): < 100 nM

Cn1nc(C2CCC(=O)NC2=O)c2ccc(NC(=O)CN3CCN(CCOc4cccc(-c5ccc(N6CCc7cccc(C(=O)Nc8nc9ccccc9s8)c7C6)nc5C(=O)O)c4C(F)(F)F)CC3)cc21 (stereo not shown) [Compound 126, 6-(8-(benzo[d]thiazol-2-ylcarbamoyl)-3,4-dihydroisoquinolin-2(1H)-yl)-3-(3-(2-(4-(2-((3-(2,6-dioxopiperidin-3-yl)-1-methyl-1H-indazol-6-yl)amino)-2-oxoethyl)piperazin-1-yl)ethoxy)-2-(trifluoromethyl)phenyl)picolinic acid]
Ymin (6 h): B (50% ≤ Ymin < 70%) | DC50 (6 h, read-out: EC50 (6 h)): 100 to 1000 nM

Cc1c(O[C@H]2CC[C@H](CC(F)(F)CN3CCN(c4ccc5c(C6CCC(=O)NC6=O)nn(C)c5c4)CC3)CC2)cccc1-c1ccc(N2CCc3cccc(C(=O)Nc4nc5ccccc5s4)c3C2)nc1C(=O)O (stereo partly shown) [Compound 212a, 6-(8-(benzo[d]thiazol-2-ylcarbamoyl)-3,4-dihydroisoquinolin-2(1H)-yl)-3-(3-(((1r,4r)-4-(3-(4-(3-(2,6-dioxopiperidin-3-yl)-1-methyl-1H-indazol-6-yl)piperazin-1-yl)-2,2-difluoropropyl)cyclohexyl)oxy)-2-methylphenyl)picolinic acid]
Ymin (24 h): B (50% ≤ Ymin < 70%) | DC50 (24 h, read-out: EC50 (24 h)): < 100 nM

Cc1c(OCCC2CCN(CCN3CCN(c4ccc5c(C6CCC(=O)NC6=O)nn(C)c5c4)CC3)CC2)cccc1-c1ccc(N2CCc3cccc(C(=O)Nc4nc5ccccc5s4)c3C2)nc1C(=O)O (stereo not shown) [Compound 232, 6-[8-(1,3-benzothiazol-2-ylcarbamoyl)-3,4-dihydro-1H-isoquinolin-2-yl]-3-[3-[2-[1-[2-[4-[3-(2,6-dioxo-3-piperidyl)-1-methyl-indazol-6-yl]piperazin-1-yl]ethyl]-4-piperidyl]ethoxy]-2-methyl-phenyl]pyridine-2-carboxylic acid]
Ymin (24 h): A (Ymin < 50%) | DC50 (24 h, read-out: EC50 (24 h)): < 100 nM

Cc1c(OCC[C@H]2CCN(CC(=O)Nc3ccc4c(C5CCC(=O)NC5=O)nn(C)c4c3)C2)cccc1-c1ccc(N2CCc3cccc(C(=O)Nc4nc5ccccc5s4)c3C2)nc1C(=O)O (stereo partly drawn) [Compound 219b, 6-[8-(1,3-benzothiazol-2-ylcarbamoyl)-3,4-dihydro-1H-isoquinolin-2-yl]-3-[3-[2-[(3R)-1-[2-[[3-(2,6-dioxo-3-piperidyl)-1-methyl-indazol-6-yl]amino]-2-oxo-ethyl]pyrrolidin-3-yl]ethoxy]-2-methyl-phenyl]pyridine-2-carboxylic acid]
Ymin (6 h): B (50% ≤ Ymin < 70%) | Ymin (24 h): A (Ymin < 50%) | DC50 (6 h, read-out: EC50 (6 h)): < 100 nM | DC50 (24 h, read-out: EC50 (24 h)): < 100 nM

Cc1c(OCCCN2CCC(CC(=O)Nc3cccc4c(C5CCC(=O)NC5=O)nn(C)c34)CC2)cccc1-c1ccc(N2CCc3cccc(C(=O)Nc4nc5ccccc5s4)c3C2)nc1C(=O)O (stereo not shown) [Compound 122, 6-[8-(1,3-benzothiazol-2-ylcarbamoyl)-3,4-dihydro-1H-isoquinolin-2-yl]-3-[3-[3-[4-[2-[[3-(2,6-dioxo-3-piperidyl)-1-methyl-indazol-7-yl]amino]-2-oxo-ethyl]-1-piperidyl]propoxy]-2-methyl-phenyl]pyridine-2-carboxylic acid]
Ymin (6 h): B (50% ≤ Ymin < 70%) | Ymin (24 h): B (50% ≤ Ymin < 70%) | DC50 (6 h, read-out: EC50 (6 h)): < 100 nM | DC50 (24 h, read-out: EC50 (24 h)): < 100 nM

Cc1c(Oc2ccc(CCCCN3CCN(c4cccc5c(C6CCC(=O)NC6=O)nn(C)c45)CC3)cc2)cccc1-c1ccc(N2CCc3cccc(C(=O)Nc4nc5ccccc5s4)c3C2)nc1C(=O)O (stereo not shown) [Compound 175, 6-(8-(benzo[d]thiazol-2-ylcarbamoyl)-3,4-dihydroisoquinolin-2(1H)-yl)-3-(3-(4-(4-(4-(3-(2,6-dioxopiperidin-3-yl)-1-methyl-1H-indazol-7-yl)piperazin-1-yl)butyl)phenoxy)-2-methylphenyl)picolinic acid]
Ymin (24 h): B (50% ≤ Ymin < 70%) | DC50 (24 h, read-out: EC50 (24 h)): < 100 nM

Cc1c(O[C@H]2CC[C@H]([C@@H](C)CCN3CCN(c4ccc5c(C6CCC(=O)NC6=O)nn(C)c5c4)CC3)CC2)cccc1-c1ccc(N2CCc3cccc(C(=O)Nc4nc5ccccc5s4)c3C2)nc1C(=O)O (single isomer, unassigned) [Compound 310b]
Ymin (24 h): A (Ymin < 50%) | DC50 (24 h, read-out: EC50 (24 h)): < 100 nM

Cc1c(O[C@H]2CC[C@H](CCCN3CCN(c4ccc5c(C6CCC(=O)NC6=O)nn(C)c5c4)[C@@H](C)C3)CC2)cccc1-c1ccc(N2CCc3cccc(C(=O)Nc4nc5ccccc5s4)c3C2)nc1C(=O)O (stereo partly drawn) [Compound 278b, 6-(8-(benzo[d]thiazol-2-ylcarbamoyl)-3,4-dihydroisoquinolin-2(1H)-yl)-3-(3-(((1R,4r)-4-(3-((3S)-4-(3-(2,6-dioxopiperidin-3-yl)-1-methyl-1H-indazol-6-yl)-3-methylpiperazin-1-yl)propyl)cyclohexyl)oxy)-2-methylphenyl)picolinic acid]
Ymin (24 h): A (Ymin < 50%) | DC50 (24 h, read-out: EC50 (24 h)): < 100 nM

Cc1c(OCCC2CCN(CC(=O)N3CCN(c4cccc5c(C6CCC(=O)NC6=O)nn(C)c45)CC3)CC2)cccc1-c1ccc(N2CCc3cccc(C(=O)Nc4nc5ccccc5s4)c3C2)nc1C(=O)O (stereo not shown) [Compound 145, 6-(8-(benzo[d]thiazol-2-ylcarbamoyl)-3,4-dihydroisoquinolin-2(1H)-yl)-3-(3-(2-(1-(2-(4-(3-(2,6-dioxopiperidin-3-yl)-1-methyl-1H-indazol-7-yl)piperazin-1-yl)-2-oxoethyl)piperidin-4-yl)ethoxy)-2-methylphenyl)picolinic acid]
Ymin (6 h): B (50% ≤ Ymin < 70%) | Ymin (24 h): A (Ymin < 50%) | DC50 (6 h, read-out: EC50 (6 h)): < 100 nM | DC50 (24 h, read-out: EC50 (24 h)): < 100 nM
